Experimental data published in article PMC6025407, “Asperversins A and B, Two Novel Meroterpenoids with an Unusual 5/6/6/6 Ring from the Marine-Derived Fungus Aspergillus versicolor” (Marine Drugs, 2018).
Values after ≈ are worked out from the molar mass of the structure shown. Like-named read-outs stand apart in the source and are kept apart here.

Columns and labels:
[1] = molecular target: human recombinant AChE (Homo sapiens, UniProt P22303); assay: biochemical; conditions: for inhibition at 100 µM: AChE, read-out: Inhibitory Ratio at 100 μM; for IC50: read-out: IC50 Value against AChE
Description: Briefly, 20 µL AChE (0.05 U/mL) and 20 µL different concentrations of compounds (0.1 M phosphate buffer, pH 8.0) containing 0.1% Triton X-100) were pre-incubated at 37 °C for 30 min, then 160 µL of the assay solution which consisted of a 0.1 M phosphate buffer pH 8.0, with the addition of 600 µM 5,5’-dithio-bis (2-nitrobenzoic acid) and 550 µM acetylthiocholine iodide (ATCh) were added in the 96-well plates. The absorbance value at 425 nm was recorded for 15 min and enzyme activity was calculated from the slope of the obtained linear trend. The reaction rates were compared and the % inhibition due to the presence of tested inhibitors was calculated. Each concentration was analyzed in triplicate, and IC50 values were determined graphically from log concentration inhibition curves (Graphpad Prism 5, GraphPad Software Inc., San Diego, CA, USA).

[2] = in vitro; conditions: human, A549 cells
Description: Four human cancer cell lines (A549, MCF-7, HepG2, and HL-60 cells), together with one noncancerous cell line, the human bronchial epithelial cells Beas-2B, were used in the cytotoxic activity assay. […]
medium (HyClone, Logan, UT, USA), supplemented with 10% fetal bovine serum (HyClone) at 37 °C in a humidified atmosphere with 5% CO 2 . The cell survival assay was performed using the MTT method. Briefly, 100 μ L of a suspension of the adherent cells was seeded into each well of the 96 - well culture plates and allowed to adhere for 12 h before addition of the test compounds. The suspended cells were seeded at an initial density of 1 × 10^5 cells/mL immediately before the addition of the drug. Each tumor cell line was exposed for 48 h in triplicate to the test compounds at concentrations […]
positive controls. After incubation, culture supernatants were removed and exchanged with medium containing 0.5 mg/mL MTT. Then, the cells were incubated for 4 h at 37 °C in darkness , followed by the removal of the medium and adding 100 μ L dimethyl sulfoxide. The absorbance at 570 nm was detected and the data were expressed as the mean percentage of absorbance in treated vs. control cells.

[3] = Cytotoxic assay (MTT); conditions: human
Description: (§1) Four human cancer cell lines (A549, MCF-7, HepG2, and HL-60 cells), together with one noncancerous cell line, the human bronchial epithelial cells Beas-2B, were used in the cytotoxic activity assay. All cells were cultured in DMEM or RPMI- 1640 medium (HyClone, Logan, UT, USA), supplemented with 10% fetal bovine serum (HyClone) at 37 °C in a humidified atmosphere with 5% CO 2 . The cell survival assay was performed using the MTT method. Briefly, 100 μ L of a suspension of the adherent cells was seeded into each well of the 96 - well culture plates and allowed to adhere for 12 h before addition of the test compounds. The suspended cells were seeded at an initial density of 1 × 10^5 cells/mL immediately before the addition of the drug. Each tumor cell line was exposed for 48 h in triplicate to the test compounds at concentrations of 0.0625 , 0.32, 1.6, 8, and 40 μ M, with DDP (cis - platin, Sigma) and paclitaxel as positive controls. After incubation, culture supernatants were removed and exchanged with medium containing 0.5 mg/mL MTT. Then, the cells were incubated for 4 h at 37 °C in darkness , followed by the removal of the medium and adding 100 μ L dimethyl sulfoxide. The absorbance at 570 nm was detected and the data were expressed as the mean percentage of absorbance in treated vs. control cells.

[4] = Cytotoxic assay (MTT), noncancerous cell line; conditions: human, Beas-2B bronchial epithelial cells (noncancerous)
Description: as §1

[5] = system: Escherichia coli; assay: Antimicrobial (printed 'antifungal') bioassay; format: cell-based
Description: (§2) The tested pathogenic fungi, Staphylococcus aureus (MRSA), methicillin-sensitive Staphylococcus aureus (MSSA), Escherichia coli and Pseudomonas aeruginosa, were provided by Tongji Hospital of Tongji Medical College of Huazhong University of Science and Technology. All samples dissolved in MeOH were tested for antifungal activity in vitro by mycelial growth inhibitory rate method, a Poison Food Technique.
(§3) Potato dextrose agar (PDA) medium was used as the medium for all test fungi.
(§4) The media (100 ml) incorporating test samples were inoculated at the center of agar discs of the test fungi (4 mm diameter). Three replicate plates for each fungus were incubated at 26 °C for all test fungi. Control plates containing media mixed with MeOH (1 ml) were in cluded. After incubation for 24–48 h, the mycelial growth of fungi (mm) in both treated (T) and control (C) Petri dishes was measured diametrically in three different directions (decussation method) until the fungal growth in the control dishes was almost complete. The percentage of growth inhibition ( I) was calculated using the […]
(§5) Table S2. Antifungal Effects of Compounds 1−8 (MIC, μg/ml). fungi MRSA MSSA E. coli P. aeruginosa

[6] = system: Pseudomonas aeruginosa; assay: Antimicrobial (printed 'antifungal') bioassay; format: cell-based
Description: as §2, §3, §4, §5

[7] = system: methicillin-resistant Staphylococcus aureus (MRSA); assay: Antimicrobial (printed 'antifungal') bioassay; format: cell-based
Description: as §2, §3, §4, §5

[8] = system: methicillin-sensitive Staphylococcus aureus (MSSA); assay: Antimicrobial (printed 'antifungal') bioassay; format: cell-based
Description: as §2, §3, §4, §5

[9] = system: methicillin-resistant Staphylococcus aureus (MRSA); conditions: cited from earlier work

human recombinant AChE, sequence (P22303 32-614): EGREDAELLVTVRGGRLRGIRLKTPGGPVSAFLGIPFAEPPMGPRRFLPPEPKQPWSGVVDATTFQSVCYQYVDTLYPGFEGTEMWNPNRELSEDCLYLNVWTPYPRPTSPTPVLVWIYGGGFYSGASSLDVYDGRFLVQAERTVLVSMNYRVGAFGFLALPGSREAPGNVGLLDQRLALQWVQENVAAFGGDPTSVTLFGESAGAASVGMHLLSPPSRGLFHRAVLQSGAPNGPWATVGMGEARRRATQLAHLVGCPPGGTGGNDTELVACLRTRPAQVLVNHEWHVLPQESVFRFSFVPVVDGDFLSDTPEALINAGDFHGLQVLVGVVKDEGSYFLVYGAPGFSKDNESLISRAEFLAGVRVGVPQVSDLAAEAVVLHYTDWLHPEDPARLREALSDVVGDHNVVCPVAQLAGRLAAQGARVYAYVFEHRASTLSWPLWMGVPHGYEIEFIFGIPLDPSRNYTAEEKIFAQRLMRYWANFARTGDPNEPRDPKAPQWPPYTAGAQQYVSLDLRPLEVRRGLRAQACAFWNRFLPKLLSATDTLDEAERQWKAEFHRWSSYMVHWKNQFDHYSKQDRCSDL

Compound | inhibition at 100 µM [1] [%] | IC50 [1] [µM] | IC50 at 48 h [2] [µM] | IC50 at 48 h ([3]; HL-60 cells) [µM] | IC50 at 48 h ([3]; HepG2 cells) [µM] | IC50 at 48 h ([3]; MCF-7 cells) [µM] | IC50 at 48 h [4] [µM] | MIC ([5]; E. coli, read-out: MIC) [µg/mL] | MIC ([6]; P. aeruginosa, read-out: MIC) [µg/mL] | MIC ([7]; read-out: MIC) [µg/mL] | MIC ([8]; read-out: MIC) [µg/mL] | MIC [5] [µg/mL] | MIC [6] [µg/mL] | MIC [7] [µg/mL] | MIC [8] [µg/mL] | activity against MRSA (in words) [9]
COC(=O)C[C@@H]1OC(C)(C)[C@@H]2[C@H](OC(C)=O)C[C@@]3(C)Oc4cc(C)oc(=O)c4C[C@@H]3[C@@]12C [Compound 1, Asperversin A] | 35.7 | > 40 | > 40 | > 40 | > 40 | > 40 | > 40 | > 100 | > 100 | > 100 | > 100 | – | – | – | – | –
CC(=O)O[C@@H]1C[C@@]2(C)Oc3cc(C)oc(=O)c3C[C@@H]2[C@@]2(C)[C@H](CC(=O)O)OC(C)(C)[C@H]12 [Compound 2, Asperversin B] | 36.2 | > 40 | > 40 | > 40 | > 40 | > 40 | > 40 | > 100 | > 100 | > 100 | > 100 | – | – | – | – | –
C=C(C)[C@@H]1[C@H](OC(C)=O)C[C@@]2(C)Oc3cc(C)oc(=O)c3C[C@@H]2[C@@]1(C)[C@H](CC(=O)OC)OC(C)=O [Compound 3, Asperversin C] | 27.6 | > 40 | > 40 | > 40 | > 40 | > 40 | > 40 | > 100 | > 100 | > 100 | > 100 | – | – | – | – | –
Cc1cc2c(c(=O)o1)C[C@@H]1[C@@]3(C)[C@@H](O)CC(=O)OC(C)(C)[C@@H]3CC[C@@]1(C)O2 [Compound 4, Asperversin D] | 50.2 | > 40 | > 40 | > 40 | > 40 | > 40 | > 40 | > 100 | > 100 | > 100 | > 100 | – | – | – | – | –
CC(=O)OC1CC2(C)Oc3cc(C)oc(=O)c3CC2C2(C)C(O)CC(=O)OC(C)(C)C12 (stereo not drawn) [Compound 5, Asperversin E] | 48.7 | > 40 | > 40 | > 40 | > 40 | > 40 | > 40 | > 100 | > 100 | > 100 | > 100 | – | – | – | – | –
CC(=O)O[C@H]1CC(=O)OC(C)(C)[C@@H]2[C@H](OC(C)=O)C[C@@]3(C)Oc4cc(C)oc(=O)c4C[C@@H]3[C@@]12C [Compound 6, Asperversin F] | 62.9 | > 40 | > 40 | > 40 | > 40 | > 40 | > 40 | > 100 | > 100 | > 100 | > 100 | – | – | – | – | –
CC(=O)OC1CC2(C)Oc3cc(C)oc(=O)c3CC2C2(C)C=CC(=O)C(C)(C)C12 (stereo not drawn) [Compound 7, Asperversin G] | 92.4 | 13.6 | > 40 | > 40 | > 40 | > 40 | > 40 | > 100 | > 100 | > 100 | > 100 | – | – | – | – | –
Cc1cc2c(c(=O)o1)C[C@@H]1[C@@]3(C)[C@@H](O)CC(=O)OC(C)(C)[C@@H]3[C@H](O)C[C@@]1(C)O2 [Compound 8, asperdemin] | 25.3 | > 40 | > 40 | > 40 | > 40 | > 40 | > 40 | > 100 | > 100 | > 100 | > 100 | – | – | – | – | –
CN[C@H](CC(C)C)C(=O)N[C@H]1C(=O)N[C@@H](CC(N)=O)C(=O)N[C@H]2C(=O)N[C@H]3C(=O)N[C@H](C(=O)N[C@H](C(=O)O)c4cc(O)cc(O)c4-c4cc3ccc4O)[C@H](O)c3ccc(c(Cl)c3)Oc3cc2cc(c3O[C@@H]2O[C@H](CO)[C@@H](O)[C@H](O)[C@H]2O[C@H]2C[C@](C)(N)[C@H](O)[C@H](C)O2)Oc2ccc(cc2Cl)[C@H]1O [vancomycin, reference compound] | – | – | – | – | – | – | – | – | – | – | – | 0.5 (≈ 0.345 µM) | 0.8 (≈ 0.552 µM) | 1.2 (≈ 0.828 µM) | 0.5 (≈ 0.345 µM) | –
Apiroaspertrione A | – | – | – | – | – | – | – | – | – | – | – | – | – | – | – | effective activity
